Results: patent US20180303101A1, “METHOD OF IMPROVING GRASS QUALITY” (priority 2004, published 2018)

Test system: creeping bentgrass (variety Penncross) turf
Assay: Bentgrass color rating after foliar spray (Example 4)
Format: in vivo
Conditions: 6 weeks after treatment; iprodione 4 oz/1000 sq. ft.; Pigment Green 7 6.8 or 13.6 g/1000 sq. ft. in combination, 13.6 g alone
Source text: Pigment Green 7 was suspended in water and applied as a foliar spray to creeping bentgrass (variety Penncross) turf with a pressurized sprayer at a spray volume of 1.37 gallons of water per 1000 sq. ft. (ca. 560 l/ha). Pigment Green 7 was applied at rates of 6.8, 13.9, and 20.4 grams per 1000 sq. ft. (0.73, 1.5, and 2.2 kg/ha, respectively). Each treatment was replicated 4 times. An untreated plot was included and was also replicated four times. The average color of the bentgrass was visually evaluated at 6 weeks after treatment. Color was evaluated on a qualitative scale from 1-9, with 9 being the highest quality and 1 the lowest quality.
The procedure of Example 2 was repeated using iprodione fungicide (in the form of 26 GT brand iprodione fungicide) at 4 oz/1000 sq. ft. (ca. 1.3 mL/m2), iprodione at 4 oz/1000 sq. ft. (ca. 1.3 mL/m2) plus Pigment Green 7 at 6.8 g/1000 sq. ft. (0.73 kg/ha), iprodione at 4 oz/1000 sq. ft. plus Pigment Green 7 at 13.6 g/1000 sq. ft. (1.5 kg/ha), and Pigment Green 7 at 13.6 g/1000 sq. ft. (1.5 kg/ha). At 6 weeks after treatment, the color ratings were as follows.

For `CC(C)NC(=O)N1CC(=O)N(c2cc(Cl)cc(Cl)c2)C1=O` [iprodione, 3-(3,5-dichlorophenyl)-N-(l-methylethyl)-2,4-dioxo-1-imidazolidinecarbox-amide, reference compound], the “Color rating versus untreated check” value was “not significantly different than the untreated check”.
